Source: US20260137819A1 (Radionetics Oncology, Inc., priority 2022, published 2026)
Starred links: 1 amine or outer side, 2 acyl side, 3 side chain; linkers in the order of their positions; H or OH if unused. Non-standard residues stand in square brackets, D forms with d. Residues, ends and D or L forms follow the SMILES beside them. Groups on a side chain read outwards from the residue. *: point of attachment. X1 = COc1cc2c(cc1-c1cccc(N*)c1)-c1c(c(C(=O)N3CCOCC3(C)C)nn1-c1cc(Cl)cc(Cl)c1)CO2; DOTA = O=C(O)CN1CCN(CC(=O)O)CCN(CC(=O)*)CCN(CC(=O)O)CC1; Suc = O=C(CCC(=O)[*:2])[*:1]

Target: T1, human follicle-stimulating hormone receptor (FSHR) (Homo sapiens, UniProt P23945)
T1 construct: host or cells: CHO-K1
T1 sequence (P23945 18-695): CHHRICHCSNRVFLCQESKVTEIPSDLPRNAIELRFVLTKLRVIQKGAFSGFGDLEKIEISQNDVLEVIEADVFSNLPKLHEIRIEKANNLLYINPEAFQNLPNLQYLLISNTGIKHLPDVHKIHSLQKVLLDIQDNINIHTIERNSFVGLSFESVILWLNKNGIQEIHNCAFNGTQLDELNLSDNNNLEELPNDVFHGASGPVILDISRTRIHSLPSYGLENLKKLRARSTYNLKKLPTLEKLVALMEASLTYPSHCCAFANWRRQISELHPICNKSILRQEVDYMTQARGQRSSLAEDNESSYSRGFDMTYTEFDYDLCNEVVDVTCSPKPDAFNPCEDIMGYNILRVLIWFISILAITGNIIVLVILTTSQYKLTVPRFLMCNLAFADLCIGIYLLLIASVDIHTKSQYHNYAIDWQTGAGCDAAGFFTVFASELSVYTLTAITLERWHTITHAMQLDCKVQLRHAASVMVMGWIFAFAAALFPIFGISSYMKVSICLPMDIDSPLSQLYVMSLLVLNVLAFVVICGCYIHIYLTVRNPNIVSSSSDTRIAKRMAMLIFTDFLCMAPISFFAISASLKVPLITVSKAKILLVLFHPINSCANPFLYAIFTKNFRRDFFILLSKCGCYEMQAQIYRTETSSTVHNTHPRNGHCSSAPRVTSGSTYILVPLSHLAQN
Experiment: Measurement of agonist cAMP production by activation of human FSHR
Assay type: cell-based
Details: CHO-K1 human FSHR cells, 30 minutes at 37° C., HTRF cAMP kit; read-out: hFSHR Agonist cAMP EC50
Method: Measurement of agonist cAMP production by activation of human FSHR
Two days prior to the assay, 5,000 CHO—K1 human FSHR cells (Eurofins #95-0119C2) stably expressing the functional human follicle-stimulating hormone receptor were plated in a 96-well tissue culture-treated plate in growth media supplemented with the appropriate selection agent. […] The cells were incubated for 30 minutes at 37° C. (the final concentrations of the compound ranged from 0-10,000 nM). After the 30-minute incubation at 37° C., lysis buffer (HRTF CAMP kit, Cisbio #62AM5PEB)w as added directly to the cells and incubated for 30-minutes at room temperature. The diluted lysate was transferred and CAMP detection and visualization antibodies (HRTF CAMP kit, Cisbio #62AM5PEB) were added and incubated for 1-24 hours at room temperature. The time-resolved fluorescent signal was read with a Tecan M1000Pro (Tecan) multiplate reader. The intracellular cAMP concentrations were calculated by regression to a standard curve and were plotted vs. the concentration of the agonists. The concentration of test compound or FSH required to generate a half maximal response EC50 were calculated using standard curve-fitting methods. All data manipulations were performed using GraphPad Prism v9.3.1 (GraphPad, San Diego, CA).

Structure (SMILES)	EC50 [nM]
COc1cc2c(cc1-c1cccc(NC(=O)CCC(=O)NCCCC[C@@H](NC(=O)[C@@H](C)NC(=O)[C@@H](CCC(=O)O)NC(=O)[C@@H](C)NC(=O)CN3CCN(CC(=O)O)CCN(CC(=O)O)CCN(CC(=O)O)CC3)C(=O)N[C@H](C)C(=O)N[C@H](CCC(=O)O)C(=O)N[C@H](C)C(N)=O)c1)-c1c(c(C(=O)N3CCOCC3(C)C)nn1-c1cc(Cl)cc(Cl)c1)CO2 [Compound 86, (4R,7R,10R,13R,16R)-4-(((R)-1-amino-1-oxopropan-2-yl)carbamoyl)-10-(4-(4((3-(1-(3,5-dichlorophenyl)-3-(3,3-dimethylmorpholine-4-carbonyl)-7-methoxy-1,4-dihydrochromeno|4,3-clpyrazol-8-yl)phenyl)amino)-4-oxobutanamido)butyl)-7,13-dimethyl-6,9,12,15-tetraoxo-16-((R)-2-(2-(4,7,10-tris(carboxymethyl)-1,4,7,10-tetraazacyclododecan-1-yl)acetamido)propanamido)-5,8,11,14-tetraazanonadecanedioic acid] ({DOTA}-[dA][dE][dA][dK]([Suc-X1])[dA][dE][dA]-NH2)	10 to 100
COc1cc2c(cc1-c1cccc(NC(=O)C[C@@H](N)C(=O)NC3CCN(C(=O)CN4CCN(CC(=O)O)CCN(CC(=O)O)CCN(CC(=O)O)CC4)CC3)c1)-c1c(c(C(=O)N3CCOCC3(C)C)nn1-c1cc(Cl)cc(Cl)c1)CO2 [Compound 12, (R)-2,2′,2″-(10-(2-(4-(2-amino-4-((3-(1-(3,5-dichlorophenyl)-3-(3,3-dimethylmorpholine-4-carbonyl)-7-methoxy-1,4-dihydrochromeno|4,3-clpyrazol-8-yl)phenyl)amino)-4-oxobutanamido)piperidin-1-yl)-2-oxoethyl)-1,4,7,10-tetraazacyclododecane-1,4,7-triyl)triacetic acid]	10 to 100
COc1cc2c(cc1-c1cccc(NC(=O)C[C@H](O)C[C@H](O)CCNC(=O)CN3CCN(CC(=O)O)CCN(CC(=O)O)CCN(CC(=O)O)CC3)c1)-c1c(c(C(=O)N3CCOCC3(C)C)nn1-c1cc(Cl)cc(Cl)c1)CO2 [Compound 38]	10 to 100
COc1cc2c(cc1-c1cccc(NC(=O)CCC(=O)NCCCC[C@@H](NC(=O)[C@@H](CCC(=O)O)NC(=O)[C@@H](CCCNC(=N)N)NC(=O)[C@@H](C)NC(=O)CN3CCN(CC(=O)O)CCN(CC(=O)O)CCN(CC(=O)O)CC3)C(=O)N[C@H](CCCNC(=N)N)C(=O)N[C@H](CCCNC(=N)N)C(=O)N[C@H](C)C(N)=O)c1)-c1c(c(C(=O)N3CCOCC3(C)C)nn1-c1cc(Cl)cc(Cl)c1)CO2 [Compound 89] ({DOTA}-[dA][dR][dE][dK]([Suc-X1])[dR][dR][dA]-NH2)	10 to 100
COc1cc2c(cc1-c1cccc(NC(=O)CCOCCOCCOCCOCCOCCOCCNC(=O)CN3CCN(CC(=O)O)CCN(CC(=O)O)CCN(CC(=O)O)CC3)c1)-c1c(c(C(=O)N3CCOCC3(C)C)nn1-c1cc(Cl)cc(Cl)c1)CO2 [Compound 16, 2,2′,2″-(10-(24-((3-(1-(3,5-dichlorophenyl)-3-(3,3-dimethylmorpholine-4-carbonyl)-7-methoxy-1,4-dihydrochromeno[4,3-c]pyrazol-8-yl)phenyl)amino)-2,24-dioxo-6,9,12,15,18,21-hexaoxa-3-azatetracosyl)-1,4,7,10-tetraazacyclododecane-1,4,7-triyl)triacetic acid]	10 to 100
COc1cc2c(cc1-c1cccc(/C(C)=N/OCCNC(=O)CN3CCN(CC(=O)O)CCN(CC(=O)O)CCN(CC(=O)O)CC3)c1)-c1c(c(C(=O)N3CCOCC3(C)C)nn1-c1cc(Cl)cc(Cl)c1)CO2 [Compound 39]	10 to 100
